US7622479B2, “Bicyclic derivative, its production and use” (Takeda Pharmaceutical Company Limited, priority 2001, dated 2009)
Marks after values point to notes of the source that are not given here.

What was measured:
[1] = system: normal human cell fibroblast MRC-5; assay: Cell proliferation suppression test, normal cells MRC-5 (SRB staining); format: cell-based; conditions: MRC5, MRC-5 normal fibroblasts, incubated for 3 or 5 days, SRB protein staining, absorbance 550 nm, read-out: Cell proliferation inhibition (IC50; μM) MRC-5
Protocol: (§1) 100 μl of a suspension of HER2-expressing SK-BR-3 human breast cancer cells or 100 μl of BT-474 (2,000 cells) or 100 μl (4,000 cells) of a suspension of normal human cell fibroblast MRC-5 was sown in a 96-well microplate and cultured at 37° C. in a 5% carbonic acid gas incubator. On the following day, 100 μl of a solution of the test compound which had previously been diluted 2-fold, was added and the mixture was incubated for 3 or 5 days. The cells were fixed and washed with 5% glutaraldehyde solution and further fixed with 10% trichloroacetic acid solution, after which a 0.4% (W/V) SRB 0.4% (W/V) solution (dissolved in 1% acetic acid) was added to stain the cell protein. After the pigment solution was removed and the plate was washed with 1% acetic acid solution, 100 μl of extract (10 mM tris buffer solution) was added to extract the pigment; absorbance was measured at an absorption wavelength of 550 nm to quantify the amount of cells as protein content.
(§2) Taking the absorbance for the control group, which received no test compound solution, as 100% the ratio of the absorbance for each treatment group was determined, and the compound concentration required to achieve 50% suppression of the residual cell content relative to the control (IC50 value) was calculated.

[2] = system: BT-474 human cancer cells; assay: Antitumor test in nude mouse model implanted with human cancer cells; format: in vivo; conditions: twice each day, for 14 days, nude BALB/c female mouse, BT-474 subcutaneous, tumor volume change vs Gelucire control
Protocol: 1×10^7 BT-474 human cancer cells were suspended in Matrigel solution, and the suspension was subcutaneously transplanted to a nude BALB/c female mouse (5 weeks old). In order to enhance the take ratio of the tumor, an estrogen preparation was intramuscularly administered to a hind leg at plantation and 7 days after transplantation.
A Gelucire solution (0.3 or 1 mg/ml) of the compound of the present invention was orally administered at a dosage of 10 ml/kg, twice each day, for 14 days. During the first day and the last day that the administration was carried out, the tumor diameter was measured, and the tumor volume was calculated using the formula: tumor volume=major axis x minor axis x minor axis x(1/2). The T/C (%) was calculated as the ratio of the value obtained by subtracting the tumor volume on the last day of administration from the tumor volume on the first day of administration for the control group (to which only Gelucire was administered) and the value obtained by subtracting the tumor volume on the last day of administration from the tumor volume on the first day of administration for the treatment group.

[3] = system: HER2-expressing SK-BR-3 human breast cancer cells; assay: Cell proliferation suppression test, SK-BR-3 (SRB staining); format: cell-based; conditions: SK-BR-3 cells, incubated for 3 or 5 days, SRB protein staining, absorbance 550 nm, read-out: Cell proliferation inhibition (IC50; μM) SK-BR-3
Protocol: as §1, §2

[4] = system: BT-474 human breast cancer cells; assay: Cell proliferation suppression test, BT-474 (SRB staining); format: cell-based; conditions: BT-474 cells, incubated for 3 or 5 days, SRB protein staining, absorbance 550 nm, read-out: Cell proliferation inhibition (IC50; μM) BT-474
Protocol: as §1, §2

Row | SMILES | IC50 [1] | T/C(%) 3 mg/kg ([2]; 3 mg/kg orally) | T/C(%) 10 mg/kg ([2]; 10 mg/kg orally) | IC50 [3] | IC50 [4]
1 | COc1cccc(-c2nc3cc(-c4ccccc4)cnc3[nH]2)c1 [Example 1, 2-(3-methoxyphenyl)-6-phenyl-1H-imidazo[4,5-b]pyridine] | > 25 µM | 58* % | 31** % | 0.12 µM | 0.28 µM
2 | COc1ccc(Cc2nc3cc(-c4ccco4)cnc3[nH]2)cc1OC [Example 97, 2-(3,4-dimethoxybenzyl)-6-(2-furyl)-1H-imidazo[4,5-b]pyridine] | > 25 µM | – | – | 0.94 µM | 0.49 µM
3 | Clc1ccc(Cc2nc3cc(-c4ccco4)cnc3[nH]2)cc1 [Example 113, 2-(4-chlorobenzyl)-6-(2-furyl)-1H-imidazo[4,5-b]pyridine] | ≥ 25 µM | – | – | 0.22 µM | 0.25 µM
4 | COc1cccc(-c2nc3ncc(-c4ccccc4)cc3n2Cc2ccccc2O)c1 [Example 157, 2-[[2-(3-methoxyphenyl)-6-phenyl-1H-imidazo[4,5-b]pyridin-1-yl]methyl]phenol] | > 25 µM | – | – | 0.23 µM | 0.19 µM
5 | COc1cccc(-c2nc3ncc(-c4ccccc4)cc3n2CC2CC2)c1 [Example 202, 1-(cyclopropylmethyl)-2-(3-methoxyphenyl)-6-phenyl-1H-imidazo[4,5-b]pyridine] | 21 µM | – | – | 0.55 µM | 1.1 µM
6 | Fc1ccc(/C=C/c2nc3cc(-c4ccco4)ccc3o2)c(F)c1 [Example 219, 2-[(E)-2-(2,4-difluorophenyl)ethenyl]-5-(2-furyl)benzoxazole] | > 25 µM | – | – | 0.14 µM | 0.83 µM
